{"source": "ChEMBL document CHEMBL4715829", "about": "“Heterodimeric Rifampicin-Tobramycin conjugates break intrinsic resistance of Pseudomonas aeruginosa to doxycycline and chloramphenicol in vitro and in a Galleria mellonella in vivo model” (Eur J Med Chem, 2019)", "key": {"[1]": {"tested_on": "Pseudomonas aeruginosa", "assay": "Antibacterial activity against Pseudomonas aeruginosa 100036 assessed as reduction in bacterial growth by measuring chloramphenicol MIC at 8 ug/ml incubated for 18 hrs in presence of chloramphenicol by broth microdilution assay (reference value: 1024 ug/ml)", "format": "functional", "details": "dose 8 µg/ml"}, "[2]": {"tested_on": "Pseudomonas aeruginosa", "assay": "Antibacterial activity against Pseudomonas aeruginosa 260-97103 assessed as reduction in bacterial growth by measuring chloramphenicol MIC at 8 ug/ml incubated for 18 hrs in presence of chloramphenicol by broth microdilution assay (reference value: 128 ug/ml)", "format": "functional", "details": "dose 8 µg/ml"}, "[3]": {"tested_on": "Pseudomonas aeruginosa", "assay": "Antibacterial activity against wild type Pseudomonas aeruginosa PAO1 assessed as reduction in bacterial growth by measuring chloramphenicol MIC at 0.25 ug/ml incubated for 18 hrs in presence of chloramphenicol by broth microdilution assay (reference value: 32 ug/ml)", "format": "functional", "details": "dose 0.25 µg/ml"}, "[4]": {"tested_on": "Pseudomonas aeruginosa", "assay": "Antibacterial activity against Pseudomonas aeruginosa 264-101354 assessed as reduction in bacterial growth by measuring doxycycline MIC at 8 ug/ml incubated for 18 hrs in presence of doxycycline by broth microdilution assay (reference value: 64 ug/ml)", "format": "functional", "details": "dose 8 µg/ml"}, "[5]": {"tested_on": "Pseudomonas aeruginosa", "assay": "Antibacterial activity against Pseudomonas aeruginosa 259-96918 assessed as fractional inhibitory concentration incubated for 18 hrs in presence of rifampicin by broth microdilution assay", "format": "functional"}, "[6]": {"tested_on": "Pseudomonas aeruginosa", "assay": "Antibacterial activity against Pseudomonas aeruginosa 101885 assessed as fractional inhibitory concentration incubated for 18 hrs in presence of tigecycline by broth microdilution assay", "format": "functional"}, "[7]": {"tested_on": "Pseudomonas aeruginosa", "assay": "Antibacterial activity against Pseudomonas aeruginosa 264-101354 assessed as potentiation of chloramphenicol-induced antibacterial activity by measuring chloramphenicol MIC at 9.8 uM incubated for 18 hrs in presence of chloramphenicol by broth microdilution assay (reference value: 4096 ug/ml)", "format": "functional"}, "[8]": {"tested_on": "Klebsiella pneumoniae", "assay": "Potentiation of doxycycline-induced antibacterial activity against Klebsiella pneumoniae ATCC 16381 assessed as fold change in doxycycline MIC at 9.8 uM incubated for 18 hrs in presence of doxycycline by broth microdilution assay relative to control", "format": "functional"}, "[9]": {"tested_on": "Pseudomonas aeruginosa", "assay": "Antibacterial activity against Pseudomonas aeruginosa 114228 assessed as fractional inhibitory concentration incubated for 18 hrs in presence of tigecycline by broth microdilution assay", "format": "functional"}, "[10]": {"tested_on": "Pseudomonas aeruginosa", "assay": "Antibacterial activity against Pseudomonas aeruginosa 262-101856 assessed as fractional inhibitory concentration index incubated for 18 hrs in presence of tigecycline by broth microdilution assay", "format": "functional"}, "[11]": {"tested_on": "Pseudomonas aeruginosa", "assay": "Antibacterial activity against Pseudomonas aeruginosa 100036 assessed as fractional inhibitory concentration index incubated for 18 hrs in presence of rifampicin by broth microdilution assay", "format": "functional"}, "[12]": {"tested_on": "Pseudomonas aeruginosa", "assay": "Antibacterial activity against Pseudomonas aeruginosa 260-97103 assessed as fractional inhibitory concentration incubated for 18 hrs in presence of tigecycline by broth microdilution assay", "format": "functional"}, "[13]": {"tested_on": "Pseudomonas aeruginosa", "assay": "Antibacterial activity against Pseudomonas aeruginosa 260-97103 infected in Galleria mellonella larvae assessed as survival of larvae at 100 mg/kg treated at 3 hrs post-infection in presence of chloramphenicol and measured after 18 hrs relative to control", "format": "functional"}, "[14]": {"tested_on": "Pseudomonas aeruginosa", "assay": "Potentiation of doxycycline-induced antibacterial activity against Pseudomonas aeruginosa 260-97103 assessed as fold change in doxycycline MIC at 9.8 uM incubated for 18 hrs in presence of doxycycline by broth microdilution assay relative to control", "format": "functional"}, "[15]": {"tested_on": "Escherichia coli", "assay": "Potentiation of chloramphenicol-induced antibacterial activity against Escherichia coli ATCC 25922 assessed as fold change in chloramphenicol MIC at 9.8 uM incubated for 18 hrs in presence of chloramphenicol by broth microdilution assay relative to control", "format": "functional"}, "[16]": {"tested_on": "HEK293", "assay": "Cytotoxicity against human HEK293 cells assessed as cell viability at 50 uM incubated for 48 hrs in presence of chloramphenicol by prestoblue assay", "format": "cell-based", "details": "hek293, 48 h"}, "[17]": {"tested_on": "Pseudomonas aeruginosa", "assay": "Potentiation of chloramphenicol-induced antibacterial activity against wild type Pseudomonas aeruginosa PAO1 assessed as fold change in chloramphenicol MIC at <=9.8 uM incubated for 18 hrs in presence of chloramphenicol by broth microdilution assay", "format": "functional", "details": "dose microM <=9.8"}, "[18]": {"tested_on": "Pseudomonas aeruginosa", "assay": "Antibacterial activity against Pseudomonas aeruginosa 101243 assessed as fractional inhibitory concentration incubated for 18 hrs in presence of minocycline by broth microdilution assay", "format": "functional"}, "[19]": {"tested_on": "Pseudomonas aeruginosa", "assay": "Antibacterial activity against Pseudomonas aeruginosa 101885 assessed as potentiation of chloramphenicol-induced antibacterial activity by measuring chloramphenicol MIC at 9.8 uM incubated for 18 hrs in presence of chloramphenicol by broth microdilution assay (reference value: 512 ug/ml)", "format": "functional"}, "[20]": {"tested_on": "Pseudomonas aeruginosa", "assay": "Potentiation of doxycycycline-induced bactericidal activity against Pseudomonas aeruginosa PAO1 assessed as reduction in bacterial colonies incubated for >= 24 hrs in LB medium in presence of doxycycline followed by plating on agar plate and measured after 20 hrs by time-kill assay", "format": "functional, organism-based", "details": "dose 4.9-9.8 µM, time hrs >=44"}, "[21]": {"tested_on": "Pseudomonas aeruginosa", "assay": "Antibacterial activity against Pseudomonas aeruginosa 259-96918 assessed as reduction in bacterial growth by measuring doxycycline MIC at 2 ug/ml incubated for 18 hrs in presence of doxycycline by broth microdilution assay (reference value: 32 ug/ml)", "format": "functional", "details": "dose 2 µg/ml"}, "[22]": {"tested_on": "Pseudomonas aeruginosa", "assay": "Antibacterial activity against Pseudomonas aeruginosa 100036 assessed as potentiation of doxycycline-induced antibacterial activity by measuring doxycycline MIC at 7.6 uM incubated for 18 hrs in presence of doxycycline by broth microdilution assay (reference value: 64 ug/ml)", "format": "functional"}, "[23]": {"tested_on": "Pseudomonas aeruginosa", "assay": "Antibacterial activity against Pseudomonas aeruginosa 114228 assessed as potentiation of doxycycline-induced antibacterial activity by measuring doxycycline MIC at 7.6 uM incubated for 18 hrs in presence of doxycycline by broth microdilution assay (reference value: 32 ug/ml)", "format": "functional"}, "[24]": {"tested_on": "Klebsiella pneumoniae", "assay": "Potentiation of chloramphenicol-induced antibacterial activity against Klebsiella pneumoniae ATCC 16381 assessed as fold change in chloramphenicol MIC at 7.6 uM incubated for 18 hrs in presence of chloramphenicol by broth microdilution assay relative to control", "format": "functional"}, "[25]": {"tested_on": "Escherichia coli", "assay": "Potentiation of chloramphenicol-induced antibacterial activity against Escherichia coli ATCC 25922 assessed as fold change in chloramphenicol MIC at 7.6 uM incubated for 18 hrs in presence of chloramphenicol by broth microdilution assay relative to control", "format": "functional"}, "[26]": {"tested_on": "Pseudomonas aeruginosa", "assay": "Potentiation of doxycycline-induced antibacterial activity against Pseudomonas aeruginosa 91433 assessed as fold change in doxycycline MIC at 7.6 uM incubated for 18 hrs in presence of doxycycline by broth microdilution assay relative to control", "format": "functional"}, "[27]": {"tested_on": "Pseudomonas aeruginosa", "assay": "Potentiation of chloramphenicol-induced antibacterial activity against Pseudomonas aeruginosa 264-101354 assessed as fold change in chloramphenicol MIC at 7.6 uM incubated for 18 hrs in presence of chloramphenicol by broth microdilution assay relative to control", "format": "functional"}, "[28]": {"tested_on": "Enterobacter cloacae", "assay": "Potentiation of chloramphenicol-induced antibacterial activity against Enterobacter cloacae ATCC 117029 assessed as fold change in chloramphenicol MIC at 7.6 uM incubated for 18 hrs in presence of chloramphenicol by broth microdilution assay relative to control", "format": "functional"}, "[29]": {"tested_on": "Pseudomonas aeruginosa", "assay": "Potentiation of chloramphenicol-induced antibacterial activity against Pseudomonas aeruginosa 259-96918 assessed as fold change in chloramphenicol MIC at 7.6 uM incubated for 18 hrs in presence of chloramphenicol by broth microdilution assay relative to control", "format": "functional"}}, "data": [{"smiles": "NC[C@H]1O[C@H](O[C@H]2[C@H](O)[C@@H](O[C@H]3O[C@H](CO)[C@@H](O)[C@H](N)[C@H]3O)[C@H](N)C[C@@H]2N)[C@H](N)C[C@@H]1O", "note": "[TOBRAMYCIN]", "values": [{"measurement": "MIC", "setting": "[1]", "result": 1020, "unit": "µg/mL"}, {"measurement": "MIC", "setting": "[2]", "result": 128, "unit": "µg/mL"}, {"measurement": "MIC", "setting": "[3]", "result": 32, "unit": "µg/mL"}, {"measurement": "MIC", "setting": "[4]", "result": 64, "unit": "µg/mL"}]}, {"smiles": "CO[C@H]1/C=C/O[C@@]2(C)Oc3c(C)c(O)c4c(O)c(c(/C=N/N5CCN(Cc6cn(CCCCCCO[C@@H]7[C@@H](O[C@H]8O[C@H](CO)[C@@H](O)[C@H](N)[C@H]8O)[C@H](N)C[C@H](N)[C@H]7O[C@H]7O[C@H](CN)[C@@H](O)C[C@H]7N)nn6)CC5)c(O)c4c3C2=O)NC(=O)/C(C)=C\\C=C\\[C@H](C)[C@H](O)[C@@H](C)[C@@H](O)[C@@H](C)[C@H](OC(C)=O)[C@@H]1C.Cl.Cl.Cl.Cl.Cl", "values": [{"measurement": "FIC", "setting": "[5]", "result": "<0.125"}, {"measurement": "FIC", "setting": "[6]", "result": 0.063}, {"measurement": "MIC", "setting": "[7]", "result": 128, "unit": "µg/mL"}, {"measurement": "fold change (FC)", "setting": "[8]", "result": 0}, {"measurement": "FIC", "setting": "[9]", "result": "<0.031"}, {"measurement": "fractional inhibitory concentration index (FICI)", "setting": "[10]", "result": "<0.19"}, {"measurement": "fractional inhibitory concentration index (FICI)", "setting": "[11]", "result": 0.31}, {"measurement": "FIC", "setting": "[12]", "result": "<0.125"}, {"measurement": "survival at 100 mg/kg", "setting": "[13]", "result": 72, "unit": "%"}, {"measurement": "fold change (FC)", "setting": "[14]", "result": 4}, {"measurement": "fold change (FC)", "setting": "[15]", "result": 0}, {"measurement": "Activity", "setting": "[16]", "result": "Non-Toxic"}, {"measurement": "fold change (FC)", "setting": "[17]", "result": 32}, {"measurement": "FIC", "setting": "[18]", "result": "<0.063"}, {"measurement": "MIC", "setting": "[19]", "result": 8, "unit": "µg/mL"}, {"measurement": "Activity", "setting": "[20]", "result": "Dose-dependent effect"}]}, {"smiles": "CO[C@H]1/C=C/O[C@@]2(C)Oc3c(C)c(O)c4c(O)c(c(/C=N/N5CCN(C)CC5)c(O)c4c3C2=O)NC(=O)/C(C)=C\\C=C\\[C@H](C)[C@H](O)[C@@H](C)[C@@H](O)[C@@H](C)[C@H](OC(C)=O)[C@@H]1C", "note": "[RIFAMPIN]", "values": [{"measurement": "MIC", "setting": "[21]", "result": 32, "unit": "µg/mL"}]}, {"smiles": "CO[C@H]1/C=C/O[C@@]2(C)Oc3c(C)c(O)c4c(O)c(c(/C=N/N5CCN(Cc6cn(CCCCCCCCCCCCO[C@@H]7[C@@H](O[C@H]8O[C@H](CO)[C@@H](O)[C@H](N)[C@H]8O)[C@H](N)C[C@H](N)[C@H]7O[C@H]7O[C@H](CN)[C@@H](O)C[C@H]7N)nn6)CC5)c(O)c4c3C2=O)NC(=O)/C(C)=C\\C=C\\[C@H](C)[C@H](O)[C@@H](C)[C@@H](O)[C@@H](C)[C@H](OC(C)=O)[C@@H]1C.O=C(O)C(F)(F)F.O=C(O)C(F)(F)F.O=C(O)C(F)(F)F.O=C(O)C(F)(F)F.O=C(O)C(F)(F)F", "values": [{"measurement": "MIC", "setting": "[22]", "result": 0.5, "unit": "µg/mL"}, {"measurement": "MIC", "setting": "[23]", "result": 2, "unit": "µg/mL"}, {"measurement": "fold change (FC)", "setting": "[24]", "result": 0}, {"measurement": "fold change (FC)", "setting": "[25]", "result": 0}, {"measurement": "fold change (FC)", "setting": "[26]", "result": 4}, {"measurement": "fold change (FC)", "setting": "[27]", "result": 4}, {"measurement": "fold change (FC)", "setting": "[28]", "result": 0}, {"measurement": "fold change (FC)", "setting": "[29]", "result": 4}]}]}
